The record followed here is ChEMBL document CHEMBL1201862, “PubChem BioAssay data set” (2004).

What all share (assay): inhibition of tumour cell growth, NCI panel, 48 h
For test [1], the system named is 786-0.
Test [2] concerns DU-145.
Test [3] relates to Hs-578T.
Test [4] deals with MDA-MB-231.
For test [5], the system named is MDA-MB-435.
Test [6] has as its system NCI-H23.
In test [7] the test system is OVCAR-8.
The subject of test [8] is RXF 393.
Test [9] has as its system SF-268.
Test [10] has as its system SF-295.
In test [11] the test system is SN12C.
The test system of test [12] is SNB-19.
Test [13] has as its system SNB-75.
Test [14] has as its system TK-10.
For test [15], the system named is IGROV-1.
In test [16] the test system is KM12.
The subject of test [17] is Malme-3M.
For test [18], the system named is RPMI-8226.
Test [19] has as its system SF-539.
The test system of test [20] is SW-620.

Where “and” joins values, the source holds several entries; their conditions need not be identical. Equal entries are not always repeated.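 Method: 48-hour compound exposure of cells in 96-well plates, five concentrations, linear interpolation of endpoints. GI50: concentration for 50% inhibition of growth.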 Calls of active or inactive are those of the source. No stated cut-off is given here; in the data, active = GI50 up to about 1.1 µM and inactive = higher. A value given as a limit tells only on which side of the number the result lay.

On to `NC1=NC(=O)/C(=C2\CCNC(=O)c3[nH]c(Br)cc32)N1` [HYMENIALDISINE], for which the GI50 in test [1] was 27.5 µM (inactive); in test [2] it was 39.6 µM (inactive); in test [3], 38.6 µM (inactive); in [4], 4.66 µM (inactive); in test [5], 5.58 µM (inactive); in test [6] it was 80.9 µM (inactive) and 52.7 µM (inactive). In addition, the GI50 in test [7] is 7.21 µM (inactive) and 10.5 µM (inactive); in [8] it was 29.7 µM (inactive) and 34.6 µM (inactive); in [9], 8.93 µM (inactive) and 5.09 µM (inactive); in [10], > 100 µM (inactive); in [11], 19.5 µM (inactive) and 11.3 µM (inactive); in [12], 39.1 µM (inactive) and 48.2 µM (inactive). For the same compound, the GI50 in test [13] is 34.8 µM (inactive) and 40 µM (inactive); in test [14] it was 9.12 µM (inactive).

On to `Oc1ccc(-c2nc3ccccc3s2)cc1`, for which the GI50 in test [1] is 27.1 µM (inactive); in [2], 33.1 µM (inactive); in test [3], 37.7 µM (inactive); in test [15] it was 25.7 µM (inactive); in test [16], 21.1 µM (inactive); in [4], 29.2 µM (inactive). Besides, the GI50 was 37.2 µM (inactive) in test [5]; 47.3 µM (inactive) in test [17]; 25.2 µM (inactive) in test [6]; 30.6 µM (inactive) in test [7]; 27.1 µM (inactive) in [18]; 24 µM (inactive) in test [8]. The GI50 was 31.5 µM (inactive) in test [9]; 37.5 µM (inactive) in test [10]; 47.8 µM (inactive) in test [19]; 38 µM (inactive) in [11]; 55.1 µM (inactive) in test [12]; 37.4 µM (inactive) in [13]. Further, the GI50 in [20] is 65.5 µM (inactive).

On to `CCNC(=O)Nc1ccccn1`, for which the GI50 in test [1], in [2], in [3], in [15], in test [16] and in test [4] was > 100 µM (inactive) throughout. Besides, the GI50 in test [5], in test [17], in test [6], in test [7], in [8] and in test [9] was > 100 µM (inactive) each time. In addition, the GI50 was > 100 µM (inactive) in test [10]; > 100 µM (inactive) in test [19]; > 100 µM (inactive) in test [11]; > 100 µM (inactive) in test [12]; 84.5 µM (inactive) in test [13]; > 100 µM (inactive) in test [20]. Moreover, in test [14], the GI50 is > 100 µM (inactive).

As to `O=c1[nH]nc(Cc2ccc(Cl)cc2)n1O`, the GI50 in [1], in [2], in test [3], in test [15], in test [16] and in test [4] was > 100 µM (inactive) throughout. Further, the GI50 in test [5], in test [17], in [6], in test [7], in test [18] and in test [8] was > 100 µM (inactive) in each case. For the same compound, the GI50 in test [9], in test [10], in test [19], in [11], in [12] and in [20] was > 100 µM (inactive) in each case. The GI50 in test [14] is > 100 µM (inactive).

With `Cc1ncc(CO)c(CN)c1O`, the GI50 in test [1], in [2], in [3], in [15], in test [16] and in test [4] was > 100 µM (inactive) in each case. For the same compound, the GI50 in test [5], in test [17], in [6], in test [7], in test [18] and in test [8] was > 100 µM (inactive) each time. Further, the GI50 in test [9], in test [10], in test [19], in test [11], in [12] and in test [20] was > 100 µM (inactive) each time. In [14], the GI50 was > 100 µM (inactive).

On to `COc1ccc([C@@]23Oc4cc(OC)cc(OC)c4[C@]2(O)[C@H](O)[C@H](C(N)=O)[C@H]3c2ccccc2)cc1` [DIDESMETHYLROCAGLAMIDE], for which the GI50 is < 0.01 µM (active) in test [1]; < 0.01 µM (active) in test [2]; < 0.01 µM (active) in test [3]; < 0.01 µM (active) in [15]; < 0.01 µM (active) in test [16]; < 0.0108 µM (active) in [4]. The GI50 in test [5], in test [17], in [6], in test [7], in test [18] and in test [8] was < 0.01 µM (active) each time. Further, the GI50 in [9], in test [10], in test [19], in [11], in test [12] and in [20] was < 0.01 µM (active) each time. Also, the GI50 in [14] is 0.0105 µM (active).

On to `COC(=O)C12OC3CO[Si](C(C)C)(C(C)C)O[Si](C(C)C)(C(C)C)OC3C1Oc1nc(=O)ccn12` (configuration not stated), for which the GI50 was 17.7 µM (inactive) in [1]; 18.5 µM (inactive) in test [2]; < 0.01 µM (active) in test [3]; 11.6 µM (inactive) in [15]; 15.7 µM (inactive) in test [16]; 15.5 µM (inactive) in test [4]. The GI50 in [5] is 17.1 µM (inactive); in test [17], 14.8 µM (inactive); in test [6] it was 15.5 µM (inactive); in test [7] it was 15.5 µM (inactive); in [18] it was 13.7 µM (inactive); in test [8], 16.6 µM (inactive). In addition, the GI50 in test [9] was 12 µM (inactive); in test [10] it was 16 µM (inactive); in [19] it was 16.4 µM (inactive); in test [11], 17.9 µM (inactive); in [12], 17.3 µM (inactive); in test [20], 16 µM (inactive). Further, the GI50 in test [14] is 17.1 µM (inactive).

For `CN(C)c1nc2oc(-c3ccccc3)c(-c3ccccc3)c2c2nncn12`, the GI50 in test [1], in test [2], in test [3], in [15], in [16] and in [4] was > 100 µM (inactive) throughout. The GI50 in test [5], in test [6], in [7], in test [18], in [8] and in test [9] was > 100 µM (inactive) throughout. The GI50 in [10] was > 100 µM (inactive); in test [19], > 100 µM (inactive); in [11] it was > 100 µM (inactive); in test [12], > 100 µM (inactive); in test [13], 53.5 µM (inactive); in test [20], > 100 µM (inactive). Also, the GI50 in [14] is > 100 µM (inactive).

Take `COc1ccc(Cn2c(=O)c(OC)c(C)c3cc4ccccc4cc32)cc1`: the GI50 in test [1] was 33 µM (inactive); in [2], 35.2 µM (inactive); in test [3], 40.9 µM (inactive); in test [15] it was 21.4 µM (inactive); in test [16] it was 26.5 µM (inactive); in test [4] it was 22.7 µM (inactive). In addition, the GI50 was 28.1 µM (inactive) in test [5]; 21.1 µM (inactive) in test [17]; 22.3 µM (inactive) in test [6]; 27.9 µM (inactive) in [7]; 34.4 µM (inactive) in [8]; 39 µM (inactive) in test [9]. Moreover, the GI50 in test [10] was 32.3 µM (inactive); in test [19], 32.7 µM (inactive); in [11] it was 19.8 µM (inactive); in test [12] it was 48.1 µM (inactive); in test [13], 32.1 µM (inactive); in test [20], 32.5 µM (inactive). In [14], the GI50 is 25.7 µM (inactive).

For the compound `O=C(O)c1ccc(OCc2nc3cc(C(F)(F)F)ccc3nc2-c2ccccc2)cc1`, the GI50 in [1] was 98.4 µM (inactive); in [2] it was 60.1 µM (inactive); in test [3], 43.5 µM (inactive); in test [15] it was 56 µM (inactive); in test [16] it was 30.1 µM (inactive); in test [4], 56.4 µM (inactive). Moreover, the GI50 is 55.2 µM (inactive) in [5]; 36.8 µM (inactive) in test [6]; 41.9 µM (inactive) in test [7]; 36.8 µM (inactive) in test [8]; 41.8 µM (inactive) in test [9]; 39.1 µM (inactive) in [10]. Besides, the GI50 was 32.1 µM (inactive) in test [19]; 60.4 µM (inactive) in [11]; 73.8 µM (inactive) in test [12]; 17.2 µM (inactive) in test [13]; 53.2 µM (inactive) in test [20]; 71 µM (inactive) in test [14].

As for `O=C1c2cccc3cccc(c23)C2NCCCN12` (configuration not stated), the GI50 in test [1], in test [2], in [3], in test [15], in test [16] and in test [4] was > 100 µM (inactive) throughout. Also, the GI50 was > 100 µM (inactive) in test [5]; > 100 µM (inactive) in test [17]; > 100 µM (inactive) in test [6]; > 100 µM (inactive) in test [7]; 42.4 µM (inactive) in test [8]; > 100 µM (inactive) in test [9]. Moreover, the GI50 is > 100 µM (inactive) in test [10]; > 100 µM (inactive) in [11]; > 100 µM (inactive) in test [12]; < 0.01 µM (active) in test [13]; 94 µM (inactive) in test [20]; > 100 µM (inactive) in test [14].
